ChEMBL document CHEMBL4476885, “Multisubstituted 4h-thiazolo[4,5-e][1,4]diazepine-5,8-dione derivative and use thereof” (2017)

What follows are compounds tested on Mus musculus (assay: Antiinflammatory activity in iv dosed ICR mouse model of CLP-induced sepsis assessed as increase in survival rate).
Format: functional
In the case of O=C1C2CCCN2C(=O)c2sc(N3CCCCC3)nc2N1Cc1ccccc1 (stereo not drawn), the Activity is reported as 40%.
For COc1ccc(CNc2nc3c(s2)C(=O)N2CCCC2C(=O)N3)cc1 (stereo not drawn), the Activity was 40%.
In the case of COc1ccc(CNc2nc3c(s2)C(=O)N(C)CC(=O)N3Cc2ccccc2)cc1, the Activity is reported as 40%.
CN1C(=O)C2CCCCN2C(=O)c2sc(Sc3ccccc3)nc21 (stereo not drawn) gave an Activity of 60%.
Compound O=C1Nc2nc(N3CCOCC3)sc2C(=O)N2CCCC12 (stereo not drawn) has an Activity of 40%.
In the case of CCN1C(=O)C2CCCN2C(=O)c2sc(NCc3ccc(OC)cc3)nc21 (stereo not drawn), the Activity is reported as 40%.
For CCCCNc1nc2c(s1)C(=O)N(Cc1ccccc1)CC(=O)N2, the Activity was 40%.
Compound CCCSc1nc2c(s1)C(=O)N1CCCCC1C(=O)N2 (stereo not drawn) has an Activity of 40%.
